Where two headings read alike, the source gives them in different places.
Key:
[1] = target: B-Raf (V600E) (Homo sapiens (Human), UniProt P15056, V600E); assay: Raf IC50 assay, time-resolved fluorescence energy transfer, B-Raf (V600E); type: biochemical; details: 0.1 mM ATP; read-out: IC50 (nM) B_Raf^V600E
[2] = target: C-Raf (Y340D/Y341D) (Homo sapiens (Human), UniProt P04049, Y340D/Y341D); assay: Raf IC50 assay, time-resolved fluorescence energy transfer, C-Raf (Y340D/Y341D); type: biochemical; details: 0.1 mM ATP
Method: The assay was carried out in reactions (10 μL) containing 0.0625 nM B-Raf or 0.5 nM C-Raf, 25 mM Tris pH7.4, 10 mM MgCl2, 0.5 mM EGTA, 0.5 mM Na3VO4, 5 mM beta-glycerophosphate, 0.01% Triton X-100, 2.5 mM DTT, 0.1% BSA, 0.1 mM ATP, 13.7 nM GST-tagged MEK1 (Full-length protein with K97R mutation, recombinant protein purified from bacterial expression system) and 0-5 μM compounds disclosed herein (final concentration of 1% DMSO). The enzyme was incubated with the compounds at room temperature for 60 minutes and the reactions were initiated by the addition of ATP and GST-MEK1. After reaction at room temperature for 60 minutes, an equal volume of stop/detection solution was added according to the manufacture's instruction (CisBio Bioassays). The stop/detection solution contained Eu^3+ cryptate-conjugated anti-phospho MEK1/2 (Ser217/221) rabbit polyclonal antibody and d2-conjugated anti-GST mouse monoclonal antibody in buffer containing 25 mM Tris pH7.4, 400 mM KF, 50 mM EDTA, 0.01% BSA and 0.01% Triton X-100. Plates were sealed and incubated at room temperature for 2 hours, and the TR-FRET signals (ratio of fluorescence emission at 665 nm over emission at 620 nm with excitation at 337 nm wavelength) were recorded on a PHERAstar FS plate reader (BMG Labtech). Phosphorylation of MEK1 led to the binding of anti-phospho-MEK1/2 antibody to GST-MEK1 protein that place fluorescent donor (Eu^3+ crypate) in close proximity to the accepter d2 on the anti-GST antibody, thus resulting in a high degree of fluorescence resonance energy transfer from the donor fluorophore (at 620 nm) to the acceptor fluorophore (at 665 nm). […] The IC50 for each compound was derived from fitting the dose-response % inhibition data to the four-parameter logistic model by Graphpad Prism software.

[3] = target: wild type B-Raf (Homo sapiens (Human), UniProt P15056); assay: WT B-Raf IC50 assay, time-resolved fluorescence energy transfer; type: biochemical
Method: The IC50 for each compound was calculated by non linear regression by Graphpad Prism software.

[4] = tested on: A375; assay: Anti-proliferative activity EC50 assay (CellTiter-Glo) in A375; type: cell-based; details: Homo sapiens, A-375, 72 h; 3-day exposure; read-out: Cell Proliferation EC50 (nM) A375
Method: The growth-inhibitory activity of compounds in A375 and p61-A375, was determined using CellTiter-Glo luminescent cell viability assay (Promega). The 2,000 cells were seeded per well of a 96-well plate to ensure logarithmic growth could occur over the 3 days treatment period. Cells were left to attach for 16 hours, cells were treated in duplicate with a 10-point dilution series. Following a 3-day exposure to compounds disclosed herein, a volume of CellTiter-Glo reagent equal to the volume of cell culture medium present in each well was added. Mixture was mixed on an orbital shaker for 2 minutes to allow cell lysis, followed by 10 minutes incubation at room temperature to allow stabilization of luminescent signal, which corresponded to quantitation of ATP and thus the quantitation of metabolically active cells. Luminescent signal was measured using Pherastar FS reader (BMG Labtech).
EC50 values for growth inhibition were calculated by fitting dose-dependent data to the four-parameter logistic model using GraphPad Prism software.

[5] = 2.5 mM ATP, read-out: IC50 (nM) B-Raf^WT 2.5 mM ATP
[6] = Km ATP (2.9 μM ATP), read-out: IC50 (nM) B-Raf^WT Km ATP

B-Raf (V600E), sequence (P15056 whole entry V600E): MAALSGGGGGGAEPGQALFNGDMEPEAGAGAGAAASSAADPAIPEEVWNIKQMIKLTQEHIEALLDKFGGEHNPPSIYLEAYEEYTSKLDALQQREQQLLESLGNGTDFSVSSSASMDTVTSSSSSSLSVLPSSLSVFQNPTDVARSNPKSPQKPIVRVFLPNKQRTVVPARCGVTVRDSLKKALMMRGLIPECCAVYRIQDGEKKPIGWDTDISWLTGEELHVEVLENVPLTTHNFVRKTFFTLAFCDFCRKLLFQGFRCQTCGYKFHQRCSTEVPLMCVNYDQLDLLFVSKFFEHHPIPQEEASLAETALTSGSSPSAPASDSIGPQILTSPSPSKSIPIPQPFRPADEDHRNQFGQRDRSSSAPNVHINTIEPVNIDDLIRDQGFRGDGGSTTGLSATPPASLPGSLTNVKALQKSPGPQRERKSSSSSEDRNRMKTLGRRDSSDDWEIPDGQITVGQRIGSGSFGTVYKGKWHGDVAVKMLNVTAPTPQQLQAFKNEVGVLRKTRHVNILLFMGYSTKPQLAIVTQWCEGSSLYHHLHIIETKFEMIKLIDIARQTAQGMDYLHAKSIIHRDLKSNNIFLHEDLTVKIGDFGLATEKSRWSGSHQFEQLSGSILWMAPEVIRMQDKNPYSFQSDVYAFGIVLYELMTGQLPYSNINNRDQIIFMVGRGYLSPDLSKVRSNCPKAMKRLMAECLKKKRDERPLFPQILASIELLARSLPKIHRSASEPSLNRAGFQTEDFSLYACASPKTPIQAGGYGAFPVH
wild type B-Raf, sequence (P15056 whole entry): as the sequence (P15056 whole entry V600E) above, with E600V counted along it
C-Raf (Y340D/Y341D), sequence (P04049 whole entry Y340D/Y341D): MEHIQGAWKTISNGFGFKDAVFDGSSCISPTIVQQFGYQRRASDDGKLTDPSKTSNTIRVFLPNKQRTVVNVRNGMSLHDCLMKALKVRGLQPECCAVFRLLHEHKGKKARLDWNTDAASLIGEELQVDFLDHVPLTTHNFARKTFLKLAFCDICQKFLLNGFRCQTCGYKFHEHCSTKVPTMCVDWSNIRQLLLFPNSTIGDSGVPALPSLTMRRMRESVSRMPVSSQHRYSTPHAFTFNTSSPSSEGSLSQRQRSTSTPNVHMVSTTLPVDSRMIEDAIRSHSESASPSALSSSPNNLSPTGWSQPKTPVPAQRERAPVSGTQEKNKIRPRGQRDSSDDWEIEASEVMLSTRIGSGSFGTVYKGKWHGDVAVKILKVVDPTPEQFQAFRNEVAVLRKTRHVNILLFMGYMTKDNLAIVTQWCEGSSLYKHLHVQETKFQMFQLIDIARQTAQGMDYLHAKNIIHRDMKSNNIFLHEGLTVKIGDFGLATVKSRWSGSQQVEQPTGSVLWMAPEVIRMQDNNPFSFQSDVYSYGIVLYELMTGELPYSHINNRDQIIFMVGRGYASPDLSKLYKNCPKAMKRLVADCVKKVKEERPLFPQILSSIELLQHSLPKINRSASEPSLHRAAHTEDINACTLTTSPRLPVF

Row | Compound | IC50 [1] | IC50 [2] | IC50 [3, 5] | IC50 [3, 6] | EC50 [4]
1 | O=C1CCc2c(Oc3ccc4c(c3)[C@H]3[C@H](NC(=O)Nc5cccc(C(F)(F)F)c5)[C@H]3O4)ccnc2N1 [Compound 1.1, 1-((1S,1aS,6bS)-5-((7-oxo-5,6,7,8-tetrahydro-1,8-naphthyridin-4-yl)oxy)-1a,6b-dihydro-1H-cyclopropa[b]benzofuran-1-yl)-3-(3-(trifluoromethyl)phenyl)urea] | 8.3 nM | 1.6 nM | 43 nM | 13 nM | 109 nM
2 | O=C1CCc2c(Oc3ccc4c(c3)[C@H]3[C@H](NC(=O)Nc5cc(C(F)(F)F)ccn5)[C@H]3O4)ccnc2N1 [Compound 1.2] | 4 nM | 0.77 nM | 18 nM | 6.3 nM | 122 nM
3 | COc1ccc(CNC(=O)N[C@@H]2[C@H]3Oc4ccc(Oc5ccnc6c5CCC(=O)N6)cc4[C@@H]23)cc1 [Compound 1.3] | 40 nM | 0.54 nM | – | – | –
4 | COc1cccc(NC(=O)N[C@@H]2[C@H]3Oc4ccc(Oc5ccnc6c5CCC(=O)N6)cc4[C@@H]23)c1Cl [Compound 1.6] | 1.9 nM | 0.33 nM | 11 nM | 4.5 nM | 229 nM
5 | Cc1cc(Cl)ccc1NC(=O)N[C@@H]1[C@H]2Oc3ccc(Oc4ccnc5c4CCC(=O)N5)cc3[C@@H]12 [Compound 1.7] | 1.1 nM | 0.35 nM | – | 2.6 nM | –
6 | O=C1CCc2c(Oc3ccc4c(c3)[C@H]3[C@H](NC(=O)Nc5ccc(Cl)cc5C(F)(F)F)[C@H]3O4)ccnc2N1 [Compound 1.9] | 9.5 nM | 1.6 nM | – | 21 nM | –
7 | O=C1CCc2c(Oc3ccc4c(c3)[C@H]3[C@H](NC(=O)Nc5cc(F)cc(C(F)(F)F)c5)[C@H]3O4)ccnc2N1 [Compound 1.11] | 5.5 nM | 1.8 nM | 110 nM | 30 nM | 147 nM
8 | O=C1CCc2c(Oc3ccc4c(c3)[C@H]3[C@H](NC(=O)Nc5cccc(C(F)(F)F)c5F)[C@H]3O4)ccnc2N1 [Compound 1.12] | 4.7 nM | 1.1 nM | 86 nM | 23 nM | 106 nM
9 | C#Cc1cccc(NC(=O)N[C@@H]2[C@H]3Oc4ccc(Oc5ccnc6c5CCC(=O)N6)cc4[C@@H]23)c1 [Compound 1.14] | 1.9 nM | – | 8.5 nM | 2.8 nM | 127 nM
10 | O=C1CCc2c(Oc3ccc4c(c3)[C@H]3[C@H](NC(=O)Nc5ccc(C(F)(F)F)cc5F)[C@H]3O4)ccnc2N1 [Compound 1.20] | 13 nM | 2.7 nM | – | 23 nM | –
11 | O=C1CCc2c(Oc3ccc4c(c3)[C@H]3[C@H](NC(=O)Nc5ccccc5F)[C@H]3O4)ccnc2N1 [Compound 1.21] | 1.1 nM | 0.066 nM | 2.5 nM | 0.87 nM | 128 nM
12 | O=C1CCc2c(Oc3ccc4c(c3)[C@H]3[C@H](NC(=O)Nc5cccc(F)c5)[C@H]3O4)ccnc2N1 [Compound 1.22] | 1.3 nM | 0.18 nM | 4.2 nM | 1.7 nM | 87 nM
13 | O=C1CCc2c(Oc3ccc4c(c3)[C@H]3[C@H](NC(=O)Nc5cc(C(F)(F)F)ccc5F)[C@H]3O4)ccnc2N1 [Compound 1.33] | 9.5 nM | – | 75 nM | 19 nM | 137 nM
14 | O=C1CCc2c(Oc3ccc4c(c3)[C@H]3[C@H](NC(=O)Nc5c(F)cc(F)cc5F)[C@H]3O4)ccnc2N1 [Compound 1.40] | 1.6 nM | 0.2 nM | – | 2 nM | –
15 | O=C1CCc2c(Oc3ccc4c(c3)[C@H]3[C@H](NC(=O)Nc5c(F)ccc(F)c5F)[C@H]3O4)ccnc2N1 [Compound 1.48] | 0.74 nM | – | 7.9 nM | 2.5 nM | 686 nM
16 | CC(C)(N)c1cc(NC(=O)N[C@@H]2[C@H]3Oc4ccc(Oc5ccnc6c5CCC(=O)N6)cc4[C@@H]23)cc(C(F)(F)F)c1 [Compound 1.70, 1-(3-(2-aminopropan-2-yl)-5-(trifluoromethyl)phenyl)-3-((1S,1aS,6bS)-5-((7-oxo-5,6,7,8-tetrahydro-1,8-naphthyridin-4-yl)oxy)-1a,6b-dihydro-1H-cyclopropa[b]benzofuran-1-yl)urea] | 7.4 nM | 0.81 nM | – | 15 nM | –
17 | O=C1CCc2c(Oc3ccc4c(c3)[C@@H]3[C@@H](NC(=O)Nc5cccc(C(F)(F)F)c5)[C@@H]3O4)ccnc2N1 [Compound 1.71, 1-((1R,1aR,6bR)-5-((7-oxo-5,6,7,8-tetrahydro-1,8-naphthyridin-4-yl)oxy)-1a,6b-dihydro-1H-cyclopropa[b]benzofuran-1-yl)-3-(3-(trifluoromethyl)phenyl)urea] | 3 nM | 0.34 nM | – | – | –
18 | O=C1CCc2c(Oc3ccc4c(c3)[C@H]3[C@H](NC(=O)N[C@H]5CCCc6ccccc65)[C@H]3O4)ccnc2N1 [Compound 1.79] | 3.2 nM | 0.39 nM | – | – | 222 nM
19 | O=C1CCc2c(Oc3ccc4c(c3)[C@H]3[C@H](NC(=O)N[C@@H]5CCCc6ccccc65)[C@H]3O4)ccnc2N1 [Compound 1.80] | 4 nM | 0.5 nM | – | – | 132 nM
20 | CC(C)(C)CNC(=O)N[C@@H]1[C@H]2Oc3ccc(Oc4ccnc5c4CCC(=O)N5)cc3[C@@H]12 [Compound 1.83] | 3 nM | – | – | – | 291 nM
21 | CCCCCCCCNC(=O)N[C@@H]1[C@H]2Oc3ccc(Oc4ccnc5c4CCC(=O)N5)cc3[C@@H]12 [Compound 1.84] | 12 nM | – | – | – | 4330 nM
22 | O=C(Nc1cc(F)c(F)cc1F)N[C@@H]1[C@H]2Oc3ccc(Oc4ccnc5c4COC(=O)N5)cc3[C@@H]12 [Compound 2.3, 1-((1S,1aS,6bS)-5-((2-oxo-2,4-dihydro-1H-pyrido[2,3-d][1,3]oxazin-5-yl)oxy)-1a,6b-dihydro-1H-cyclopropa[b]benzofuran-1-yl)-3-(2,4,5-trifluorophenyl)urea] | 2.6 nM | – | – | – | 190 nM
23 | O=C1NCc2c(Oc3ccc4c(c3)[C@H]3[C@H](NC(=O)Nc5ccc(F)c(C(F)(F)F)c5)[C@H]3O4)ccnc2N1 [Compound 2.4, 1-(4-fluoro-3-(trifluoromethyl)phenyl)-3-((1S,1aS,6bS)-5-((2-oxo-1,2,3,4-tetrahydropyrido[2,3-d]pyrimidin-5-yl)oxy)-1a,6b-dihydro-1H-cyclopropa[b]benzofuran-1-yl)urea] | 11 nM | – | – | – | 374 nM
24 | O=C1NCc2c(Oc3ccc4c(c3)[C@H]3[C@H](NC(=O)Nc5cc(F)c(F)cc5F)[C@H]3O4)ccnc2N1 [Compound 2.5] | 2.3 nM | – | – | – | 769 nM
25 | CNC(=O)c1cc(Oc2ccc3c(c2)[C@H]2[C@H](NC(=O)Nc4cccc(C(F)(F)F)c4)[C@H]2O3)ccn1 [Compound 2.6, N-methyl-4-(((1S,1aS,6bS)-1-(3-(3-(trifluoromethyl)phenyl)ureido)-1a,6b-dihydro-1H-cyclopropa[b]benzofuran-5-yl)oxy)picolinamide] | 26 nM | – | – | – | 624 nM
26 | CNC(=O)c1cc(Oc2ccc3c(c2)[C@H]2[C@H](NC(=O)Nc4ccc(F)c(C(F)(F)F)c4)[C@H]2O3)ccn1 [Compound 2.7] | 33 nM | – | – | – | 464 nM
27 | CNC(=O)c1cc(Oc2ccc3c(c2)[C@H]2[C@H](NC(=O)Nc4cc(F)c(F)cc4F)[C@H]2O3)ccn1 [Compound 2.8] | 13 nM | 3 nM | – | 17 nM | –
28 | Nc1cc(Oc2ccc3c(c2)[C@H]2[C@H](NC(=O)Nc4cc(F)c(F)cc4F)[C@H]2O3)ccn1 [Compound 2.15] | 18 nM | – | – | – | 10000 nM

Source: patent US9670203B2 (BeiGene, LTD., priority 2013, dated 2017)
